According to patent EP0573253B1, “Topical anti-bacterial composition” (UNILEVER PLC, priority 1992, dated 1993):

Columns and labels:
[1] = test system: Escherichia coli; assay: Agar dilution test, minimum inhibitory concentration; type: cell-based; conditions: for MINIMUM INHIBITORY CONCENTRATION: Trypticase Soy Agar II plates; for inhibitory against gram-negative bacteria: text summary of Table II, lipid condition not stated
Protocol: (§1) Standard agar dilution tests in order to establish the minimum inhibitory concentration (% v/v) for C6 acyl lactylate, C8 acyl lactylate and C12 acyl lactylate were performed both in the presence and the absence of a lipid on the following micro-organisms: • 1. Propionibacterium acnes • 2. Staphylococcus aureus • 3. Escherichia coli • 4. Candida albicans
(§2) Control experiments were performed employing benzoyl peroxide and erthyromycin.
(§3) The present tests were performed using Trypticase Soy Agar II incorporation plates with and without 10% intralipid, supplied by Kabi Pharmacia Inc. In each case the lactylate being tested was used at a starting concentration of 10,000 ug/ml.

[2] = test system: Propionibacterium acnes; assay: as above; type: cell-based; conditions: Trypticase Soy Agar II plates
Protocol: as §1, §2, §3

[3] = test system: Candida albicans; assay: as above; type: cell-based; conditions: for MINIMUM INHIBITORY CONCENTRATION: Trypticase Soy Agar II plates
Protocol: as §1, §2, §3

[4] = test system: Staphylococcus aureus; assay: as above; type: cell-based; conditions: for MINIMUM INHIBITORY CONCENTRATION: Trypticase Soy Agar II plates
Protocol: as §1, §2, §3

[5] = test system: rate of hair loss; assay: Reduction of the rate of hair loss, panel of human volunteers (brushing and hair count); type: in vivo; conditions: human panellists, about 3 ml applied to the scalp daily at night, compared with placebo composition B; Student t-test
Protocol: The effect of selected acyl lactylates, as herein defined, on reducing the rate of hair loss was assessed using a panel of human volunteers.
Each panellist was requested to brush his or her hair immediately on getting out of bed in the morning before other grooming took place. The hair brushing consisted of ten vigorous strokes over the entire head from front to back, ten strokes from back to front and then ten strokes from each side to the opposite side. Brushing was carried out over a towel or other light cloth to collect any hairs that fell. In addition, all the hairs on the brush were removed with forceps. The total number of hair collected each day was counted. Panellists were requested to continue with their routine hair shampooing and grooming techniques as usual, the only change to this routine being the application of products in accordance with the invention or corresponding control or placebo products.
During the first month, each panellist carried out only the standard brushing, collecting and counting of hairs lost to provide a basis for comparison later. For the second and third months, the scalp was treated by adding the test or placebo compositions in addition to the standard brushing technique as previously described. […]
The results were analysed by the standard Student t-test.

[6] = text summary of Table II, lipid condition not stated

Compound	MINIMUM INHIBITORY CONCENTRATION ([1]; Lipid (10% intralipid))	MINIMUM INHIBITORY CONCENTRATION ([1]; No Lipid)	MINIMUM INHIBITORY CONCENTRATION ([2]; Lipid (10% intralipid))	MINIMUM INHIBITORY CONCENTRATION ([2]; No Lipid)	MINIMUM INHIBITORY CONCENTRATION ([3]; Lipid (10% intralipid))	MINIMUM INHIBITORY CONCENTRATION ([3]; No Lipid)	MINIMUM INHIBITORY CONCENTRATION ([4]; Lipid (10% intralipid))	MINIMUM INHIBITORY CONCENTRATION ([4]; No Lipid)	inhibitory against gram-negative bacteria [1] [% v/v]	inhibitory effect against yeast [3, 6] [% v/v]	inhibitory to gram-positive bacteria [4, 6] [% v/v]	reduction in the rate of loss of hair [5]
O=C(OOC(=O)c1ccccc1)c1ccccc1 [Benzoyl Peroxide, benzoyl peroxide, reference compound]	0.12 % V/V	0.25 % V/V	0.06 % V/V	0.25 % V/V	0.12 % V/V	0.25 % V/V	0.12 % V/V	0.25 % V/V	–	–	–	–
CC[C@H]1OC(=O)[C@H](C)[C@@H](O[C@H]2C[C@@](C)(OC)[C@@H](O)[C@H](C)O2)[C@H](C)[C@@H](O[C@@H]2O[C@H](C)C[C@H](N(C)C)[C@H]2O)[C@](C)(O)C[C@@H](C)C(=O)[C@H](C)[C@@H](O)[C@]1(C)O [Erthyromycin, erthyromycin, reference compound]	0.01 % V/V	0.01 % V/V	<1.9 x 10^-5 % V/V	<1.9 x 10^-5 % V/V	0.01 % V/V	0.01 % V/V	3.1 x 10^-4 % V/V	3.1 x 10^-4 % V/V	–	–	–	–
C6 acyl lactylate [C6 Lactylate]	" "	" "	0.5 % V/V	pH Effect	" "	" "	pH Effect	" "	–	–	–	–
C8 acyl lactylate [C8 Lactylate]	1.0 % V/V	1.0 % V/V	0.5 % V/V	0.25 % V/V	1.0 % V/V	1.0 % V/V	0.5 % V/V	0.5 % V/V	1	–	–	–
C12 acyl lactylate [C12 Lactylate]	>1.0 % V/V	>1.0 % V/V	0.25 % V/V	0.00039 % V/V	>1.0 % V/V	>1.0 % V/V	0.5 % V/V	0.06 % V/V	> 1	> 1	0.0625	significantly reduced
